The values that follow come from PubChem BioAssay (NCI).

What all share (assay): inhibition of tumour cell growth, NCI panel, 48 h
The test system of assay [1] is SK-MEL-2 melanoma.
The test system of assay [2] is NCI-H522 lung.
Assay [3] concerns RPMI-8226 leukemia.
The test system of assay [4] is OVCAR-3 ovarian.
Assay [5] relates to OVCAR-8 ovarian.
Assay [6] has as its system HT29 colon.
Assay [7] concerns EKVX NSCLC.
Assay [8] has as its system HS 578T breast.
Assay [9] concerns UACC-257 melanoma.
For assay [10], the system named is NCI-H226 lung.

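Exposure lasted 48 hours, with cells grown in 96-well plates and compounds tested at five concentrations. The concentration for 50% growth inhibition is given as GI50. TGI is the concentration that stops growth completely.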

For the compound `CN1CCN(CCCOc2ccc3nc(Nc4ccc(C(F)(F)F)c(Cl)c4)ccc3c2)CC1`, the GI50 was 2.44 µM in assay [1]; 2.02 µM in [2]; 1.75 µM in assay [3]; 1.64 µM in assay [4]; 2.07 µM in assay [5]; 0.493 µM in assay [6]. The GI50 in assay [7] is 1.74 µM; in assay [8], 1.82 µM. For the same compound, the TGI came out at 4.46 µM in assay [1]; 3.74 µM in assay [2]; 4.12 µM in [3]; 3.46 µM in [4]; 4.64 µM in assay [5]; 1.87 µM in [6]. For the same compound, the figures for the TGI in [7] and in assay [8] were 3.63 µM and 6.1 µM, respectively.
For `COc1cc(CCNc2nc3cc(N)cc(N)c3nc2-c2ccccc2)cc(OC)c1`, the GI50 in assay [1] is 1.92 µM; in assay [4], 1.08 µM; in [6] it was 1.93 µM; in assay [7] it was 1.8 µM; in assay [9] it was 1.76 µM; in assay [8] it was 2.43 µM. Also, the GI50 in assay [10] was 2.16 µM. The TGI was determined as 3.92 µM in assay [1]; 2.35 µM in assay [4]; 4.87 µM in assay [6]; 3.4 µM in [7]; 3.61 µM in [9]; 5.85 µM in assay [8]. Moreover, in assay [10], the TGI was 4.87 µM.
Regarding `Cc1csc(-c2ccc3c(c2)COC3(CCCN(C)C)c2ccc(F)cc2)c1` (stereo not given), the GI50 was 1.96 µM in assay [1]; 2.06 µM in assay [2]; 2.2 µM in assay [3]; 1.81 µM in assay [4]; 2.35 µM in assay [5]; 1.77 µM in [7]. Also, the GI50 in assay [9] is 1.81 µM; in assay [8], 1.93 µM; in [10], 1.92 µM. Also, the TGI was 3.95 µM in [1]; 4.31 µM in [2]; 4.76 µM in assay [3]; 3.37 µM in assay [4]; 5.69 µM in assay [5]; 3.48 µM in assay [7]. For the same compound, the TGI in assay [9] came out at 3.76 µM; in assay [8] it was 4.44 µM; in assay [10], 3.76 µM.
In the case of `CCc1cccc(CC)c1NC(=O)c1ccn2c1CCc1cnc(Nc3ccc(N4CCN(C)CC4)cc3OC)nc1-2`, the GI50 is 1.81 µM in assay [2]; 1.92 µM in assay [3]; 1.55 µM in assay [4]; 2.19 µM in [5]; 1.26 µM in assay [6]; 3.02 µM in [7]. For the same compound, the GI50 in assay [9] is 2.05 µM; in assay [8], 2.24 µM; in assay [10], 14.7 µM. Further, the TGI in assay [2] was found to be 4.32 µM; in assay [3], 6.58 µM; in [4] it was 4.22 µM; in assay [5] it was 32.8 µM; in [6], 9.36 µM; in assay [7], 19.6 µM. The figures for the TGI in assay [9], in assay [8] and in [10] were 4.8 µM, 11 µM and 45.2 µM, respectively.
As to `COc1ccc(C(=O)C(CC2C(=O)CC(C)(C)C(C(=O)C(=O)Nc3c(C)cccc3C)C2=O)c2ccc(OC)cc2)cc1` (stereo not given), the TGI in assay [1], in [2], in assay [4], in assay [5], in [6] and in assay [7] was more than 100 µM each time. For the same compound, the TGI in assay [9], in assay [8] and in [10] was more than 100 µM throughout.
`N=C(N)c1ccc(-c2ccc(-c3ccc(Cl)c(Cl)c3)o2)nc1`: the GI50 in [2] was 1.86 µM; in assay [3], 2.33 µM; in assay [7], 1.86 µM; in [8], 1.89 µM; in assay [10], 15.4 µM. For the same compound, the TGI worked out at 4.36 µM in assay [2]; 5.19 µM in assay [3]; 3.76 µM in assay [7]; 4.36 µM in assay [8]; 49.9 µM in assay [10].
Take `C=C(CN(C)C)C(=O)c1ccc(OC)cc1`: the TGI in [1] came out at 13.2 µM; in assay [3], 9.19 µM; in assay [4], 10.4 µM; in assay [5], 3.17 µM; in assay [6], 25.1 µM; in [7], 44.8 µM. The TGI in [9] is 11.6 µM; in assay [8], more than 87 µM; in [10], 29.4 µM.
Consider `CCOc1ccc(N=Nc2c(-c3ccccc3)nn(C(=O)CC(=O)Nc3cccc(C)c3)c2-c2ccccc2)cc1`, for which the TGI in assay [1], in assay [2], in assay [3], in assay [4], in assay [5] and in assay [6] was more than 100 µM in each case. In addition, the TGI in [7], in assay [9] and in assay [10] was more than 100 µM in each case.
Regarding `C/C=C/C=C\C(=O)C1c2cccc(O)c2C(=O)c2c(O)cc(C)cc21` (stereo not given), the TGI in assay [1] worked out at 2.2 µM; in assay [2], 3.06 µM; in assay [3], 7.26 µM; in assay [4] it was 2.2 µM; in assay [5] it was 3.19 µM; in assay [6], 4.21 µM. Moreover, the TGI is 13.4 µM in [7], 3.46 µM in assay [9] and 2.57 µM in [10].
In the case of `CC(C)N(C(=O)C12C3C4C5C3C1(C#N)C5C42)C(C)C` (stereo not given), the TGI in [1], in assay [2], in assay [3], in [4], in assay [5] and in [6] was more than 100 µM throughout. For the same compound, the TGI in assay [7], in [9] and in assay [10] was more than 100 µM in each case.
Take `O=c1[nH]c(=O)n(C2OC(CO)C(O)C2O)cc1OCc1ccccc1` (stereo not given): the TGI in assay [1] is more than 100 µM; in assay [2] it was more than 100 µM; in assay [3], more than 73.3 µM; in assay [4], more than 100 µM; in assay [5], more than 100 µM; in [6] it was more than 100 µM. Further, the TGI in assay [7], in [9] and in assay [10] was more than 100 µM each time.
